Common to all, as to assay type: biochemical
The test system of assay [1] is BCL-2. The experiment in a line: In vitro transcription-translation (IVTT) assay, BCL-2 reporter. To be noted: HeLa S3 lysate, sfGFP/mCherry ratio, 2 hrs at 30° C. The text has this:
All reporter constructs have been cloned into the pT7CFE1-CHis plasmid (ThermoFisher #88860) using Gibson assembly procedures (NEB #E2611L). The parental pT7CFE1-CHis plasmid contains an EMCV IRES at the 5′UTR for translation initiation, a multiple-cloning site (MCS) for gene insertion, an optional C-terminal His-epitope tag, and polyA sequence in the 3′UTR to regulate mRNA stability. All reporters are designed to be inserted at the MCS to include a red fluorescent protein (mCherry), P2A self-cleaving peptide which releases the preceding mCherry protein product, and a fusion open reading frame containing a 3×FLAG epitope, a peptide sequence of interest (TEST), and green fluorescent protein (sfGFP).
Construct Plasmid Preparation: All plasmids are isolated from MACH1 cells (ThermoFisher) grown overnight in ampicillin-containing luria broth, and purified using ZymoPure Express Plasmid Midiprep Kit (Zymo Research). Constructs are sequenced verified and diluted to a working concentration of 110 ng/μL.
HeLa S3 Lysate Preparation: HeLa S3 cell pellets are acquired from Ipracell/Ipratech (Belgium) and shipped as 4 mL frozen cell pellets on dry ice for storage at −80° C. until use. The procedure for lysate preparation is as follows. Prepare 1× Lysis Buffer, cold and stored on ice:
(§1) Each preparation takes 8 cell pellets (4 ml packed volume each, approximately 1.0×10^9 cells per pellet). Thaw cell pellets from −80° C. on ice for 90 mins. Lay pellets horizontally on top of the ice and rotate every 30 mins to ensure even thawing. Once thawed, add 4 mL of cold lysis buffer to each pellet, and using a serological pipet, gently pipet up and down to break up clumps. Incubate resuspended cells in ice for an additional 30 mins (plunged into ice). During 30 min incubation, rinse and RNase-zap (Ambion) glass dounces (use loose pestle “A”), gently dry and place on ice until needed. Prepare RNase-free Eppendorf tubes for spinning and for batch storage. Add batch labels to 1.5-1.7 mL RNase-free microcentrifuge tubes (labeling scheme below). Each batch will have an extra 1.5-1.7 mL RNase-free microcentrifuge tube for 40 μL of lysate, label the top of this tube (labeling scheme below). After 30 min incubation, transfer all 8 mL of cell pellet to dounce. Cell lysis is complete after douncing 100 times. Aliquot cell lysis into 1.5-1.7 mL temporary-microcentrifuge tubes. Place tubes in centrifuge with “fins” out, and spin at 1,200×g for 5 mins. After the first spin use a 1 mL pipet to resuspend each tube and repeat spin. This acts as an additional lysis step, is more vigorous and increases lysate yield. During second spin get liquid N2 and a fresh conical tube on ice. After spin is complete, transfer supernatant (lysate) from microcentrifuge tubes into the 50 mL conical tube and keep on ice. Repeat steps 10-14 for all other cell pellets until completed. Once all cell lysate has been transferred to the 50 mL conical tube pipet to mix so the solution is homogenous. Transfer 1 mL of lysate into batch-labeled microcentrifuge tubes and flash freeze in liquid nitrogen. Be sure to pipet up and down to mix throughout transfer step. Place all tubes in the […] for long-term storage.
In vitro transcription-translation assay setup: Each assay includes a master mix containing lysate and shared components, a 96-well plate containing compound titrations for testing, a 96-well DNA plate with reporter constructs to be tested, 96-well skirted PCR plates, and 96-well flat-bottom, black, fluorescent assay plates. […]

In assay [2] the test system is MYC. In words: In vitro transcription-translation (IVTT) assay, MYC reporter. The note with it: HeLa S3 lysate, 2 hrs at 30° C. The essentials:
(§2)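 Reporter: mCherry, P2A, then 3×FLAG-target peptide-sfGFP fusion, IRES-initiated; HeLa S3 lysate IVTT; cpd dilutions 30 μM−0.1 μM half-log in 100% DMSO (dilution-plate conc); DNA added last; 2 h, 30° C; PBS quench.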

In assay [3] the test system is CCND1. In words: In vitro transcription-translation (IVTT) assay, CCND1 reporter. To be noted: HeLa S3 lysate, 2 hrs at 30° C. The essentials:
as §2

Assay [4] has as its system MCL-1. The experiment in a line: In vitro transcription-translation (IVTT) assay, MCL-1 reporter. The note with it: HeLa S3 lysate, sfGFP/mCherry ratio, 2 hrs at 30° C. In short, it runs like this: as §2
For assay [5], the system named is ALK. In words: In vitro transcription-translation (IVTT) assay, ALK reporter. To be noted: HeLa S3 lysate, sfGFP/mCherry ratio, 2 hrs at 30° C. In short, it runs like this: as §2
For assay [6], the system named is KRAS G12D. In words: In vitro transcription-translation (IVTT) assay, KRAS G12D reporter. To be noted: HeLa S3 lysate, sfGFP/mCherry ratio, 2 hrs at 30° C. The essentials:
as §2

The test system of assay [7] is CCNE1. In words: In vitro transcription-translation (IVTT) assay, CCNE1 reporter. To be noted: HeLa S3 lysate, 2 hrs at 30° C. The procedure:
as §1
In vitro transcription-translation assay setup: Each assay includes a master mix containing lysate and shared components, a 96-well plate containing compound titrations for testing, a 96-well DNA plate with reporter constructs to be tested, 96-well skirted PCR plates, and 96-well flat-bottom, black, fluorescent assay plates. Reaction materials setup: (A) Master mix—15 mL conical tube (3 mL of HeLa S3 Lysate described above; 0.6 mL of ThermoFisher Accessory Proteins (#88882); 1.2 ml of ThermoFisher Reaction Mix (#88882); 0.54 mL of nuclease-free Water); (B) 96-Well Master Mix+Compound Plate (Half-log dilutions (30 μM−0.1 μM) of 4 compounds of interest are prepared in 100% DMSO); 96-Well DNA Plate (Five DNA constructs are plated into single columns within the plate. Row 1 of the column contains nuclease free H2O, all other wells contain 110 ng/μL plasmid DNA). Reactions are started by mixing 155 μL of master mix and 3.5 μL of compound serial dilutions, then 9.1 μL of master mix+compound mixture is aliquoted across 5 96-well plates. Reactions begin with final addition of 2 μL of DNA for a 11.1 μL reaction volume in each well. The entire plate is sealed, and incubated for 2 hrs at 30° C. After 2 hrs, quench the assay using 45 μL of PBS, and transfer 50 μL to a flat-bottom black microplate Quantify the sfGFP and mCherry signals from each well on each plate, taking 3 reads of each plate, and perform data analysis below.
In vitro transcription-translation assay data analysis: Each plate is read three times in channels for both sfGFP and mCherry signals. The average signal across these 3 reads is then calculated for further analysis. Control wells containing no DNA reporter are subtracted from reporter wells in the same column to remove auto-fluorescence of the lysate. Then, the ratio of sfGFP/mCherry is calculated per well, and these ratios are averaged across the triplicate experiments on the same plate. Finally, the ratio of each titration concentration is normalized to the no drug control to create the normalized stalling metric. […]

Assay [8] concerns CCNTB1. The experiment in a line: In vitro transcription-translation (IVTT) assay, CCNTB1 reporter. To be noted: HeLa S3 lysate, 2 hrs at 30° C. The essentials:
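IC50 fitted from the sfGFP/mCherry fluorescence ratio, normalized to no-drug control after no-DNA background subtraction. Reactions ran 2 h at 30° C in HeLa S3 cell lysate with reporter plasmid DNA and half-log compound titrations (30 μM−0.1 μM, in DMSO).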

Setting [9] is: IVTT assay, MYC reporter, normalized sfGFP/mCherry ratio, half-log dilutions 30 μM-0.1 μM.

As a reminder, the IC50 is the concentration that gives 50% inhibition.

In the case of `COc1ccc(C[C@H]2NC[C@H](O)[C@H]2OC(=O)NCCc2cc[nH]n2)cc1` [V187698, (2R,3S,4S)-4-hydroxy-2-[(4-methoxyphenyl)methyl]pyrrolidin-3-yl N-[2-(1H-pyrazol-3-yl)ethyl]carbamate; trifluoroacetic acid], the IC50 in assay [1], in assay [2] (sfGFP/mCherry ratio), in assay [3] (sfGFP/mCherry ratio), in assay [4], in assay [5] and in assay [6] was less than 10 µM each time.

For the molecule `COc1ccc(C[C@H]2NC[C@H](O)[C@H]2OC(=O)NC[C@H]2CCNC2)cc1F` [V188076, (2R,3S,4S)-2-[(3-fluoro-4-methoxyphenyl)methyl]-4-hydroxypyrrolidin-3-yl N-[(3S)-pyrrolidin-3-ylmethyl]carbamate], the IC50 in assay [2] (setting [9]) is greater than 30 µM; in assay [3] (IVTT), 20 to 30 µM; in assay [7], 10 to 20 µM; in assay [8], less than 10 µM.

In the case of `COc1ccc(C[C@H]2NC[C@H](O)[C@H]2OC(=O)NCc2ccc(-c3ncc[nH]3)cc2)cc1` [V188144, (2R,3S,4S)-4-hydroxy-2-[(4-methoxyphenyl)methyl]pyrrolidin-3-yl N-{[4-(1H-imidazol-2-yl)phenyl]methyl}carbamate], the IC50 in assay [2] (setting [9]), in assay [3] (IVTT), in assay [7] and in assay [8] was less than 10 µM throughout.

Consider `COc1ccc(C[C@H]2NC[C@H](O)[C@H]2OC(=O)NCc2ccnc(N3CCCC3)c2)cc1` [V188226, (2R,3S,4S)-4-hydroxy-2-[(4-methoxyphenyl)methyl]pyrrolidin-3-yl N-{[2-(pyrrolidin-1-yl)pyridin-4-yl]methyl}carbamate], for which the IC50 in assay [2] (setting [9]), in assay [3] (IVTT), in assay [7] and in assay [8] was less than 10 µM in each case.

Take `O=C(NCc1cccc(F)c1)O[C@@H]1[C@@H](O)CN[C@@H]1Cc1ccc(Cl)cc1` [V188270, (2R,3S,4S)-2-[(4-chlorophenyl)methyl]-4-hydroxypyrrolidin-3-yl N-[(3-fluorophenyl)methyl]carbamate]: the IC50 is less than 10 µM in assay [2] (setting [9]), 10 to 20 µM in assay [3] (IVTT), less than 10 µM in assay [7] and less than 10 µM in assay [8].

Consider `NS(=O)(=O)c1ccc(CNC(=O)O[C@@H]2[C@@H](O)CN[C@@H]2Cc2ccc(Cl)cc2)cc1` [V188291, (2R,3S,4S)-2-[(4-chlorophenyl)methyl]-4-hydroxypyrrolidin-3-yl N-[(4-sulfamoylphenyl)methyl]carbamate], for which the IC50 was 10 to 20 µM in assay [2] (setting [9]), less than 10 µM in assay [3] (IVTT), less than 10 µM in assay [7] and less than 10 µM in assay [8].

`COc1ccc(C[C@H]2NC[C@H](O)[C@H]2OC(=O)NCc2c[nH]cn2)cc1` [V187192, (2R,3S,4S)-4-hydroxy-2-[(4-methoxyphenyl)methyl]pyrrolidin-3-yl N-(1H-imidazol-4-ylmethyl)carbamate]: the IC50 in assay [1], in assay [2] (sfGFP/mCherry ratio), in assay [3] (sfGFP/mCherry ratio), in assay [4], in assay [5] and in assay [6] was less than 10 µM each time.

Take `COc1ccc(C[C@H]2NC[C@H](O)[C@H]2OC(=O)NCc2ccn[nH]2)cc1` [V187321, (2R,3S,4S)-4-hydroxy-2-[(4-methoxyphenyl)methyl]pyrrolidin-3-yl N-(2H-pyrazol-3-ylmethyl)carbamate; trifluoroacetic acid]: the IC50 in assay [1], in assay [2] (sfGFP/mCherry ratio), in assay [3] (sfGFP/mCherry ratio), in assay [4], in assay [5] and in assay [6] was less than 10 µM each time.

For `COc1ccc(C[C@H]2NC[C@H](O)[C@H]2OC(=O)NCCc2cnc[nH]2)cc1` [V187593, (2R,3S,4S)-4-hydroxy-2-[(4-methoxyphenyl)methyl]pyrrolidin-3-yl N-[2-(3H-imidazol-4-yl)ethyl]carbamate], the IC50 in assay [1], in assay [2] (sfGFP/mCherry ratio), in assay [3] (sfGFP/mCherry ratio), in assay [4], in assay [5] and in assay [6] was less than 10 µM throughout.

As to `COc1ccc(C[C@H]2NC[C@H](O)[C@H]2OC(=O)NCC23CNC(C2)C3)cc1` [V188152, (2R,3S,4S)-4-hydroxy-2-[(4-methoxyphenyl)methyl]pyrrolidin-3-yl N-{2-azabicyclo[2.1.1]hexan-4-ylmethyl}carbamate], the half-maximal inhibitory concentration (IC50) in assay [3] (IVTT) was greater than 30 µM; in assay [7] it was 10 to 20 µM; in assay [8], less than 10 µM.

For the molecule `COc1ccc(C[C@H]2NC[C@H](O)[C@H]2OC(=O)NCCc2ccncc2)cc1` [V187807, (2R,3S,4S)-4-hydroxy-2-[(4-methoxyphenyl)methyl]pyrrolidin-3-yl N-[2-(pyridin-4-yl)ethyl]carbamate], the IC50 in assay [1], in assay [2] (sfGFP/mCherry ratio), in assay [4], in assay [5] and in assay [6] was less than 10 µM throughout.

`COc1ccc(C[C@H]2NC[C@H](O)[C@H]2OC(=O)NCCc2cc(C)on2)cc1` [V187719, (2R,3S,4S)-4-hydroxy-2-[(4-methoxyphenyl)methyl]pyrrolidin-3-yl N-[2-(5-methyl-1,2-oxazol-3-yl)ethyl]carbamate]: the IC50 in assay [1] is 10 to 20 µM; in assay [2] (sfGFP/mCherry ratio) it was less than 10 µM; in assay [3] (sfGFP/mCherry ratio), less than 10 µM; in assay [4], less than 10 µM.

For `COc1ccc(C[C@H]2NC[C@H](O)[C@H]2OC(=O)NCCc2ccn(C)n2)cc1` [V187847, (2R,3S,4S)-4-hydroxy-2-[(4-methoxyphenyl)methyl]pyrrolidin-3-yl N-[2-(1-methylpyrazol-3-yl)ethyl]carbamate], the IC50 in assay [1] is 20 to 30 µM; in assay [2] (sfGFP/mCherry ratio), less than 10 µM; in assay [3] (sfGFP/mCherry ratio), 10 to 20 µM; in assay [4], less than 10 µM.
